These results are taken from US7429482B2, “Screening tools for discovery of novel anabolic agents” (United States of America as represented by the Department …, priority 2005, dated 2008).

For one experiment, the system named is MuRF1. Put plainly: Chronic denervation: MuRF1 mRNA in gastrocnemius (qPCR). The experiment is classed as in vivo, rat. To be noted: for reduction of MuRF1 expression: denervated muscle. On the procedure: (§1) Male Wistar rats weighing 200-250 gm (Taconic Farms, Germantown, N.Y.) were provided food and water ad libitum and were housed in a temperature and humidity controlled environment providing a 12:12 hour day-night cycle. For surgical procedures, animals were anesthetized with ketamine/xylazine. The left sciatic nerve was exposed by blunt dissection, and a 1 to 2 mm piece of this nerve was excised just below the level of the femoral head. A sham surgery was performed on the right hind limb in which the sciatic nerve was exposed but was not transected. Twenty eight days later, animals were anesthetized, and Alzet pumps were implanted subcutaneously on the back. […] Testosterone levels after replacement were approximately 15 nM, a high-normal range for rats of this age. Animals were sacrificed 3, 7 or 28 days after implantation of the miniosmotic pumps by inhalation of carbon dioxide. Gastrocnemius muscles were excised and weighed, then flash frozen on dry ice and stored at −80° C.
(§2) Total RNA was extracted from skeletal muscle (20 mg) by homogenization in guanidine thiocyanate using a Polytron followed by extraction of total RNA with phenol-chloroform as described by (Chomczynski and Sacchi, Anal Biochem 162: 156-159, 1987). Total RNA was further enriched using RNAeasy minicolumns (Qiagen, Valencia, Calif.). This procedure included digestion of contaminating DNA on the column with RNAse-free DNAse (Qiagen). Total RNA was eluted and quantified by absorbance at 260 nm. One μg of total RNA was used to prepare a cDNA library by reverse transcription (High Capacity cDNA Archive Kit, Applied Biosystems). Libraries were diluted 25-fold with water. Real time PCR was performed Taqman 2×PCR buffer (Applied Biosystems) using an Applied Biosystems 7500 thermocycler. Levels of gene expression in the denervated muscle were expressed as fold induction relative to muscle from the sham-denervated leg of animals administered vehicle. […] Fold-induction was determined using the 2^−ΔΔCt method, using expression of 18S RNA as the normalization control. […]
For orientation: Real-time PCR tracks product formation cycle by cycle.

For another experiment, the system named is GADD45. Kind of experiment: Chronic denervation: GADD45 mRNA in gastrocnemius (qPCR). It counts as in vivo, rat. Here is the method: as §1, §2
The subject of another experiment is IGFBP-5. Kind of experiment: Chronic denervation: IGFBP-5 mRNA in gastrocnemius (qPCR). It counts as in vivo, rat. Here is the method:
as §1, §2

The next experiment deals with myostatin. Put plainly: Chronic denervation: myostatin mRNA in gastrocnemius (qPCR). The experiment is classed as in vivo, rat. Here is the method: as §1, with “Animals were sacrificed 3, 7 or 28 days after implantation of the miniosmotic pumps by inhalation of carbon dioxide. Gastrocnemius muscles were excised and weighed, then flash frozen on dry ice and stored at −80° C.” left out
Total RNA was extracted from skeletal muscle (20 mg) by homogenization in guanidine thiocyanate using a Polytron followed by extraction of total RNA with phenol-chloroform as described by (Chomczynski and Sacchi, Anal Biochem 162: 156-159, 1987). […] Total RNA was eluted and quantified by absorbance at 260 nm. […] Levels of gene expression in the denervated muscle were expressed as fold induction relative to muscle from the sham-denervated leg of animals administered vehicle. […] Fold-induction was determined using the 2^−ΔΔCt method, using expression of 18S RNA as the normalization control. […]

Experiment [1] is described as follows: Acute denervation (0-14 days): muscle weights. The experiment is classed as in vivo. The settings on record: rat. Here is the method: Male Wistar rats weighing 250 gm (Taconic Farms, Germantown, N.Y.) were provided food and water ad libitum and were housed in a temperature and humidity controlled environment providing a 12:12 hour day-night cycle. For surgical procedures, animals were anesthetized with ketamine/xylazine. The left sciatic nerve was exposed by blunt dissection, and a 1 to 2 mm piece of this nerve was excised just below the level of the femoral head. A sham surgery was performed on the right hind limb in which the sciatic nerve was exposed but was not transected. Model 2002 Alzet pumps were implanted subcutaneously on the back. […] A pellet containing 15 mg of testosterone (Innovative Research of America, Sarasota, Fla.) administered as a continuous infusion (5 mg/wk), or a pellet containing placebo, was inserted into a subcutaneous pouch. […] Because testosterone is known to have anabolic actions (Ferrando et al., Am J Physiol Endocrinol Metab 282: E601-E607, 2002; Mauras et al., J Clin Endocrinol Metab 83: 1886-1892, 1998; Urban et al., Am J Physiol 269: E820-E826, 1995), reductions in levels of this hormone could affect muscle mass and confound interpretation of the results. Animals were euthanized 14 days later by inhalation of carbon dioxide. Following removal of blood from the left ventricle for determination of serum testosterone concentration by radioimmunoassay (MP Biomedicals, Costa Mesa, Calif.), soleus, extensor digitorum longus (EDL), gastrocnemius and plantaris muscles were excised and weighed, then were flash frozen on dry ice and stored at −80° C.

The next experiment has as its system myogenin. Kind of experiment: Chronic denervation: myogenin mRNA in gastrocnemius (qPCR). The experiment is classed as in vivo, rat. On the procedure: as §1
Total RNA was extracted from skeletal muscle (20 mg) by homogenization in guanidine thiocyanate using a Polytron followed by extraction of total RNA with phenol-chloroform as described by (Chomczynski and Sacchi, Anal Biochem 162: 156-159, 1987). Total RNA was further enriched using RNAeasy minicolumns (Qiagen, Valencia, Calif.). This procedure included digestion of contaminating DNA on the column with RNAse-free DNAse (Qiagen). Total RNA was eluted and quantified by absorbance at 260 nm. One μg of total RNA was used to prepare a cDNA library by reverse transcription (High Capacity cDNA Archive Kit, Applied Biosystems). Libraries were diluted 25-fold with water. Real time PCR was performed Taqman 2×PCR buffer (Applied Biosystems) using an Applied Biosystems 7500 thermocycler. Levels of gene expression in the denervated muscle were expressed as fold induction relative to muscle from the sham-denervated leg of animals administered vehicle. […] Fold-induction was determined using the 2^−ΔΔCt method, using expression of 18S RNA as the normalization control. Primers and probes used for 18S RNA, MuRF1 and myostatin were obtained through the assays by Design service of Applied Biosystems and had the sequences are shown in Table 3; probes were 5′ labeled with FAM and 3′ modified with a non-fluorescent quencher. All other primer-probe combinations used were those contained in ABI Assay on Demand kits.

The subject of a further experiment is junB. Put plainly: Acute denervation: junB mRNA in EDL and soleus (qPCR). It counts as in vivo, rat.
Another experiment has as its system MAFbx. Kind of experiment: Chronic denervation: MAFbx mRNA in gastrocnemius (qPCR). The experiment is classed as in vivo, rat. Here is the method:
as §1, §2

For `C[C@]12CC[C@H]3[C@@H](CCC4=CC(=O)CC[C@@H]43)[C@@H]1CC[C@@H]2O` [nandrolone], the “reduction of MuRF1 expression” value with MuRF1 (7-days administration) turned out to be 31%; in the experiment on MuRF1 (28-days administration) it was 37%. In the experiment on MuRF1 (muscle of sham-denervated hindlimbs), the MuRF1 expression result is reported as “no effect”. The GADD45 expression entry in the experiment on GADD45 (denervated muscle, after 3 and 7-days, not significant) is on record as “tended to reduce”; in the experiment with GADD45 (sham-denervated muscle) it was “no appreciable effect”. The “effect on GADD45 expression” value with GADD45 (denervated muscle, after 28-days infusion) was “lost”. Also, the IGFBP-5 expression entry in the experiment with IGFBP-5 (denervated muscle, 56-days) is recorded as “tended to reduce”; with IGFBP-5 (denervated muscle, any time tested) it was “did not significantly alter”; in the experiment on IGFBP-5 (sham-denervated muscle), “did not appreciably alter”. Besides, the myostatin expression result with myostatin (denervated muscle, 7 and 28 days administration) was “modest, though significant reduction”; in the experiment on myostatin (sham-denervated muscle, not significant) it was “tended to be decreased”. Further, in experiment [1] (nandrolone 1.5 mg/kg/wk 14 days + testosterone replacement, not statistically significant), the “weights of muscles from sham-transected limbs” value is listed as “tended to be increased”. The “weights of muscles from the denervated limb versus vehicle” value in experiment [1] (nandrolone 1.5 mg/kg/wk, 14 days after sciatic transection) is recorded as “not significantly different”. Moreover, the effect on atrophy result in experiment [1] (nandrolone 7.5 or 37.5 mg/kg/week, same protocol) is “No effect”. Further, the myogenin expression result with myogenin (denervated muscle, 3 or 7-days administration) is “No effects”; in the experiment on myogenin (muscle not stated, first 7-days after starting administration), “did not alter”. The “fall in myogenin expression” value in the experiment with myogenin (denervated muscle, 28-days infusion) stood at 32%. In addition, the “elevation of myogenin expression” value in the experiment with myogenin (muscle not stated (contrasted with denervated muscle), day 28 of the infusion) is recorded as “approximately 2 fold”. The junB expression entry is “significantly reduced” with junB (denervated EDL) and “tended to reduce” with junB (denervated soleus). Also, the “increase in junB expression” value in the experiment on junB (soleus and EDL from sham-denervated limbs, tendency) is reported as “approximately 2 fold”. In addition, the MAFbx expression result in the experiment with MAFbx (denervated muscle, 7-days infusion (35 days after denervation)) is reported as “tended to be reduced”; in the experiment with MAFbx (sham-denervated muscle), “did not alter”. In addition, the “reduction of MAFbx expression” value in the experiment with MAFbx (denervated muscle, 28 days administration) amounted to 35%.
